As a reminder, the IC50 is the concentration that inhibits the measured activity by half.

Structures are written as SMILES.

For the assay, the system named is KM12 cells. Nature of the assay: Cell viability assay (CellTiter-Glo) in KM12 cells. The format is cell-based. To be noted: Homo sapiens, 72 h; Table 4; KM12 cell viability, CellTiter-Glo, 3 days; read-out: IC50. In general terms: In ATP-based viability assays light output follows the ATP content of the culture.
Regarding `O=C1CCC(N2Cc3cc(C#CC4CCN(c5cccc(-c6cnc7ccc(N8CCC[C@@H]8c8cccc(F)c8)nn67)n5)CC4)ccc3C2=O)C(=O)N1` (stereo partly drawn) [TR-208, 3-(5-((1-(6-(6-((R)-2-(3-fluorophenyl)pyrrolidin-1-yl)imidazo [1,2-b]pyridazin-3-yl)pyridin-2-yl)piperidin-4-yl)ethynyl)-1-oxoisoindolin-2-yl)piperidine-2,6-dione], the IC50 was 7 nM.

`O=C1CCC(N2C(=O)c3ccc(NC(=O)C4CN(c5cccc(-c6cnc7ccc(N8CCC[C@@H]8c8cccc(F)c8)nn67)n5)C4)cc3C2=O)C(=O)N1` (stereo partly drawn) [TR-209, N-(2-(2,6-Dioxopiperidin-3-yl)-1,3-dioxoisoindolin-5-yl)-1-(6-(6-((R)-2-(3-fluorophenyl)pyrrolidin-1-yl)imidazo[1,2-b]pyridazin-3-yl)pyridin-2-yl)azetidine-3-carboxamide]: the half-inhibitory concentration (IC50) is more than 500 nM.

As for `O=C1CCC(N2Cc3cc(NCC4CN(c5cccc(-c6cnc7ccc(N8CCC[C@@H]8c8cccc(F)c8)nn67)n5)C4)ccc3C2=O)C(=O)N1` (stereo partly drawn) [TR-210, 3-(5-(((1-(6-(6-((R)-2-(3-Fluorophenyl)pyrrolidin-1-yl)imidazo[1,2-b]pyridazin-3-yl)pyridin-2-yl)azetidin-3-yl)methyl)amino)-1-oxoisoindolin-2-yl)piperidine-2,6-dione], the IC50 is 14 nM.

As to `O=C1CCC(N2C(=O)c3ccc(N4CC(C(=O)N5CCN(c6cccc(-c7cnc8ccc(N9CCC[C@@H]9c9cccc(F)c9)nn78)n6)CC5)C4)cc3C2=O)C(=O)N1` (stereo partly drawn) [TR-211, 2-(2,6-Dioxopiperidin-3-yl)-5-(3-(4-(6-(6-((R)-2-(3-fluorophenyl)pyrrolidin-1-yl)imidazo[1,2-b]pyridazin-3-yl)pyridin-2-yl)piperazine-1-carbonyl)azetidin-1-yl)isoindoline-1,3-dione], the IC50 worked out at 2 nM.

Consider `O=C1CCC(N2Cc3cc(NC4CCN(c5cccc(-c6cnc7ccc(N8CCC[C@@H]8c8cccc(F)c8)nn67)n5)CC4)ccc3C2=O)C(=O)N1` (stereo partly drawn) [TR-212, 3-(5-((1-(6-(6-((R)-2-(3-fluorophenyl)pyrrolidin-1-yl)imidazo[1,2-b]pyridazin-3-yl)pyridin-2-yl)piperidin-4-yl)amino)-1-oxoisoindolin-2-yl)piperidine-2,6-dione], for which the concentration for half-maximal inhibition (IC50) was found to be 15.8 nM.

For `O=C1CCC(N2C(=O)c3ccc(NCC(=O)NC4CN(c5cccc(-c6cnc7ccc(N8CCC[C@@H]8c8cccc(F)c8)nn67)n5)C4)cc3C2=O)C(=O)N1` (stereo partly drawn) [TR-213, 2-((2-(2,6-Dioxopiperidin-3-yl)-1,3-dioxoisoindolin-5-yl)amino)-N-(1-(6-(6-((R)-2-(3-fluorophenyl)pyrrolidin-1-yl)imidazo[1,2-b]pyridazin-3-yl)pyridin-2-yl)azetidin-3-yl)acetamide], the concentration for half-maximal inhibition (IC50) came to 22.7 nM.

Take `COc1ccc(CN(CCN2CCN(c3cccc(-c4cnc5ccc(N6CCC[C@@H]6c6cccc(F)c6)nn45)n3)CC2)c2ccc3c(c2)C(=O)N(C2CCC(=O)NC2=O)C3=O)cc1` (stereo partly drawn) [TR-214, 2-(2,6-Dioxo-3-piperidyl)-5-(2-(4-(6-(6-((2R)-2-(3-fluorophenyl)pyrrolidin-1-yl)imidazo[1,2-b]pyridazin-3-yl)-2-pyridyl)piperazin-1-yl)ethyl-((4-methoxyphenyl)methyl)amino)isoindoline-1,3-dione]: the IC50 is 2.7 nM.

Take `O=C1CCC(N2C(=O)c3ccc(NC(=O)C4CCN(c5cccc(-c6cnc7ccc(N8CCC[C@@H]8c8cccc(F)c8)nn67)n5)CC4)cc3C2=O)C(=O)N1` (stereo partly drawn) [TR-215, N-(2-(2,6-Dioxopiperidin-3-yl)-1,3-dioxoisoindolin-5-yl)-1-(6-(6-((R)-2-(3-fluorophenyl)pyrrolidin-1-yl)imidazo[1,2-b]pyridazin-3-yl)pyridin-2-yl)piperidine-4-carboxamide]: the IC50 is more than 500 nM.

Take `Cn1c(=O)n(C2CCC(=O)NC2=O)c2cccc(NCCN3CCN(c4cccc(-c5cnc6ccc(N7CCC[C@@H]7c7cccc(F)c7)nn56)n4)CC3)c21` (stereo partly drawn) [TR-216, 3-[4-[2-[4-[6-[6-[(2R)-2-(3-Fluorophenyl)pyrrolidin-1-yl]imidazo[1,2-b]pyridazin-3-yl]-2-pyridyl]piperazin-1-yl]ethylamino]-3-methyl-2-oxo-benzimidazol-1-yl]piperidine-2,6-dione]: the IC50 was 3.6 nM.

In the case of `Cn1c(=O)n(C2CCC(=O)NC2=O)c2cccc(NCCCN3CCN(c4cccc(-c5cnc6ccc(N7CCC[C@@H]7c7cccc(F)c7)nn56)n4)CC3)c21` (stereo partly drawn) [TR-217, 3-[4-[3-[4-[6-[6-[(2R)-2-(3-Fluorophenyl)pyrrolidin-1-yl]imidazo[1,2-b]pyridazin-3-yl]-2-pyridyl]piperazin-1-yl]propylamino]-3-methyl-2-oxo-benzimidazol-1-yl]piperidine-2,6-dione], the IC50 was 4 nM.

Regarding `O=C1CCC(N2Cc3cc(NCC4CCN(c5cccc(-c6cnc7ccc(N8CCC[C@@H]8c8cccc(F)c8)nn67)n5)CC4)ccc3C2=O)C(=O)N1` (stereo partly drawn) [TR-218, 3-(5-(((1-(6-(6-((R)-2-(3-Fluorophenyl)pyrrolidin-1-yl)imidazo[1,2-b]pyridazin-3-yl)pyridin-2-yl)piperidin-4-yl)methyl)amino)-1-oxoisoindolin-2-yl)piperidine-2,6-dione], the IC50 came to 15.3 nM.

Consider `O=C1CCC(N2Cc3cc(C#CC4CN(c5cccc(-c6cnc7ccc(N8CCC[C@@H]8c8cccc(F)c8)nn67)n5)C4)ccc3C2=O)C(=O)N1` (stereo partly drawn) [TR-219, 3-(5-((1-(6-(6-((R)-2-(3-Fluorophenyl)pyrrolidin-1-yl)imidazo[1,2-b]pyridazin-3-yl)pyridin-2-yl)azetidin-3-yl)ethynyl)-1-oxoisoindolin-2-yl)piperidine-2,6-dione], for which the IC50 was 44.9 nM.

In the case of `Cn1c(=O)n(C2CCC(=O)NC2=O)c2ccc(NCCN3CCN(c4cccc(-c5cnc6ccc(N7CCC[C@@H]7c7cccc(F)c7)nn56)n4)CC3)cc21` (stereo partly drawn) [TR-220, 3-(5-((2-(4-(6-(6-((R)-2-(3-Fluorophenyl)pyrrolidin-1-yl)imidazo[1,2-b]pyridazin-3-yl)pyridin-2-yl)piperazin-1-yl)ethyl)amino)-3-methyl-2-oxo-2,3-dihydro-1H-benzo[d]imidazol-1-yl)piperidine-2,6-dione], the IC50 came to 5.5 nM.

Take `Cn1c(=O)n(C2CCC(=O)NC2=O)c2ccc(NCCCN3CCN(c4cccc(-c5cnc6ccc(N7CCC[C@@H]7c7cccc(F)c7)nn56)n4)CC3)cc21` (stereo partly drawn) [TR-221, 3-(5-((3-(4-(6-(6-((R)-2-(3-Fluorophenyl)pyrrolidin-1-yl)imidazo[1,2-b]pyridazin-3-yl)pyridin-2-yl)piperazin-1-yl)propyl)amino)-3-methyl-2-oxo-2,3-dihydro-1H-benzo[d]imidazol-1-yl)piperidine-2,6-dione]: the IC50 worked out at 8.5 nM.

For the compound `O=C1CCC(N2C[C@H](c3cccc(C#CCN4CCN(c5cccc(-c6cnc7ccc(N8CCC[C@@H]8c8cccc(F)c8)nn67)n5)CC4)c3)OC2=O)C(=O)N1` (stereo partly drawn) [TR-223, 3-((S)-5-(3-(3-(4-(6-(6-((R)-2-(3-Fluorophenyl)pyrrolidin-1-yl)imidazo[1,2-b]pyridazin-3-yl)pyridin-2-yl)piperazin-1-yl)prop-1-yn-1-yl)phenyl)-2-oxooxazolidin-3-yl)piperidine-2,6-dione], the IC50 was 11.3 nM.

The values are drawn from patent publication US12065442B2, “Tropomyosin receptor kinase (TRK) degradation compounds and methods of use” (Cullgen (Shanghai), Inc., priority 2018, dated 2024).
